# Several values for one entry are separate records, joined by “and”; a condition that tells them apart may be missing. Identical values can stand only once. Like-named read-outs stand apart in the source and are kept apart here.
# Legend:
# [1] = target: T1, aldosterone receptors (Homo sapiens, UniProt P08235); settings: cited from earlier work
# T1 construct: host or cells: heart failure patients (in vivo)
# T1 sequence (P08235 1-984): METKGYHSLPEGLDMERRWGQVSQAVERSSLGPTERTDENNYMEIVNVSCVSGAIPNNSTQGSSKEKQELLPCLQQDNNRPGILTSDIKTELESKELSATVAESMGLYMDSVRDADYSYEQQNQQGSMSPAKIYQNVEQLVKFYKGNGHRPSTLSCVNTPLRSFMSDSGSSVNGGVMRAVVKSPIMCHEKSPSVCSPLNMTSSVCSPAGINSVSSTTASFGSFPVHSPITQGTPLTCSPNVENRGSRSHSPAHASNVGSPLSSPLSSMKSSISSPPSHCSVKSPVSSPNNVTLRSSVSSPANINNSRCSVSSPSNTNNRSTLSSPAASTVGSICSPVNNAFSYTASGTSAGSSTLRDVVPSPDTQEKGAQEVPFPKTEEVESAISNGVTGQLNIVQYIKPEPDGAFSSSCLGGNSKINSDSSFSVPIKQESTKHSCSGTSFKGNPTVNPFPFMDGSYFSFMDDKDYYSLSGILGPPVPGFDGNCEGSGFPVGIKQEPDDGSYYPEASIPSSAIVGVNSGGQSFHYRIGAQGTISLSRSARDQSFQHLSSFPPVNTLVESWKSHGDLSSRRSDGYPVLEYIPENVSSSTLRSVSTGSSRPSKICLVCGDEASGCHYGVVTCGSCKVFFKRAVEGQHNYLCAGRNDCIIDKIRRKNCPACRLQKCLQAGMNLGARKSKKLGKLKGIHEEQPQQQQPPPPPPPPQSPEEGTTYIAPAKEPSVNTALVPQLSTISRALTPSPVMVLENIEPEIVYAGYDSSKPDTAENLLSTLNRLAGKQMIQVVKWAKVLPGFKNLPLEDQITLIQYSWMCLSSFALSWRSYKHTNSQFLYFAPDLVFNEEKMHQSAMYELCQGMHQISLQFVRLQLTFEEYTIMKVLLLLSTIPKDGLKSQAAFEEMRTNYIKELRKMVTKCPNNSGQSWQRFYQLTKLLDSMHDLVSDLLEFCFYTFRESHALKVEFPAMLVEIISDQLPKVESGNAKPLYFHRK
# [2] = cited from earlier work
# [3] = Half life of NONOates (diazeniumdiolates) at 37° C., pH 7.4; format: physicochemical
# Description: Diazeniumdiolates, more commonly referred to as NONOates, have been extremely useful in the investigation of the biological effects of nitric oxide (NO) and related nitrogen oxides. […] FIG. 55 illustrates an exemplary chemical reaction.
# [4] = tested on: coronaries of pigs; settings: delivered intrapericardially; cited from earlier work
# [5] = tested on: rats with MI; settings: cited from earlier work
# [6] = oral, cited from earlier work
# [7] = tested on: mice with aortic banding; settings: mouse, in vivo; cited from earlier work
smiles,measurement,setting,value
CC(=O)S[C@@H]1CC2=CC(=O)CC[C@]2(C)[C@H]2CC[C@@]3(C)[C@@H](CC[C@@]34CCC(=O)O4)[C@H]12 [spironolactone],blocking the aldosterone receptors and decreasing atrial natriuretic peptide concentrations,[1]; dose of 12.5 to 25 mg daily,effective
same,incidence of serious hyperkalemia,"[1]; high-risk heart failure patients, with ACE inhibitor",low incidence
same,risk of both morbidity and death,[1]; high-risk heart failure patients,significantly reduced
same,daily dose at which serious hyperkalemia occurs most frequently,[1]; in vivo,≥ 50 mg
same,blood pressure decrease,[2]; doses above 150 mg,no additional decrease
same,incidence of gynecomastia,[2]; doses of 50 mg or less,8.9%
same,incidence of gynecomastia,[2]; doses of 150 mg or higher,52.2%
same,blood pressure decrease,[2]; doses of 25 to 50 mg,5.3% and 8.5%
same,blood pressure decrease,[2]; doses of 75 to 100 mg,12.4% and 12.2%
"CN(C)/[N+]([O-])=N/[O-].[Na+] [Compound 2, Sodium (Z)-1-(N,N-Dimthylanimo)diazen-1-ium-1,2-dilate]","Half Life 37° C., pH 7.4",[3],2 min
CC(=O)O[C@H]1C(=O)[C@@]2(C)[C@H]([C@H](OC(=O)c3ccccc3)[C@]3(O)C[C@H](OC(=O)[C@H](O)[C@@H](NC(=O)c4ccccc4)c4ccccc4)C(C)=C1C3(C)C)[C@]1(OC(C)=O)CO[C@@H]1C[C@@H]2O [Paclitaxel],neointimal proliferation in the coronaries in response to balloon injury,[4],inhibit neointimal proliferation
"CN(C)[N+]([O-])=N[O-].[Na+] [Compound 1, Sodium 1-(N,N-Dimthylanimo)diazen-1-ium-1,2-dilate]","Half Life 37° C., pH 7.4",[3],0.2 min
CO[C@H]1C[C@@H]2CC[C@@H](C)[C@@](O)(O2)C(=O)C(=O)N2CCCC[C@H]2C(=O)O[C@H]([C@H](C)C[C@@H]2CC[C@@H](OCCO)[C@H](OC)C2)CC(=O)[C@H](C)/C=C(\C)[C@@H](O)[C@@H](OC)C(=O)[C@H](C)C[C@H](C)/C=C/C=C/C=C/1C [everolimus],EF,[5]; compared to untreated MI rats,significant increase
same,LV end-diastolic diameter,[5]; compared to untreated MI rats,significant reduction
same,reduction of myocyte size,"[5]; rat, in vivo",33%
CO[C@H]1C[C@@H]2CC[C@@H](C)[C@@](O)(O2)C(=O)C(=O)N2CCCC[C@H]2C(=O)O[C@H]([C@H](C)C[C@@H]2CC[C@@H](O)[C@H](OC)C2)CC(=O)[C@H](C)/C=C(\C)[C@@H](O)[C@@H](OC)C(=O)[C@H](C)C[C@H](C)/C=C/C=C/C=C/1C [sirolimus],patients who experienced side effects (mild to severe),[6]; 2 mg daily,43%
same,patients who experienced side effects (mild to severe),[6]; 5 mg daily,66%
same,"body weight, lung weight, or liver weight",[7],without affecting
"COCON=[N+]([O-])N1CCNCC1 [Compound 7, O^2-Methozymethyl 1-(Piperazin-1-yl)diazen-1-ium-1,2-diolate]","Half Life 37° C., pH 7.4",[3],17 days
NCCCN(CCCN)/[N+]([O-])=N/O [Compound 4],"Half Life 37° C., pH 7.4",[3],3 hrs
"NCCN(CCN)[N+]([O-])=NO [Compound 5, 1-[N-(2-Aminoethyl)-N-(2-ammonioethyl)amino]diazen-1-ium-1,2-diolate]",half-life,[3]; buffer,20 h

# — patent US20100152531A1, “IMPLANTABLE MEDICAL DEVICE FOR DRUG DELIVERY AND METHOD OF USE” (Paracor Medical, Inc., priority 2008, published 2010)
